Reference: patent US12552783B2, “Modulators of proteolysis and associated methods of use” (Arvinas Operations, Inc., priority 2018, dated 2026)

Biological target: KRas (Homo sapiens, UniProt P01116, G12C)
Assay: KRas degradation in NCI-H2030 cells by Western blot, normalized to GAPDH (data of Table 14)
Assay type: cell-based
Parameters: host or cells: NCI-H2030
Conditions: for Percent Degradation at Indicated Concentration (μM): H2030; for Dmax: NCI-H2030
Procedure, shortened: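 Both lines are homozygous for KRas G12C and were serum-starved for 24 h before treatment with compound at 0.3, 1 or 3 μM in 0.1% DMSO: 24 h for VHL-based compounds, 72 h for the rest. Western blot of 10 μg lysate gave KRas signal normalized to GAPDH, and percent degradation was expressed relative to the DMSO control.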

Percent Degradation at Indicated Concentration (μM) (3 μM) | Percent Degradation at Indicated Concentration (μM) (0.3 μM) | Percent Degradation at Indicated Concentration (μM) (1 μM) | Dmax [%] | Percent Degradation at Indicated Concentration (μM): 0.3 (H2030 cells, 0.3 μM) | Percent Degradation at Indicated Concentration (μM): 1 (H2030 cells, 1 μM) | Percent Degradation at Indicated Concentration (μM): 3 (H2030 cells, 3 μM) | Dmax (H2030 cells) [%] | Compound
C (Percent Degradation: C ≤ 35) |  |  |  |  |  |  |  | C=CC(=O)N1CCN(c2nc(NCCC(=O)N(C)CCOCCOCCOCCOCC(=O)N[C@H](C(=O)N3C[C@H](O)C[C@H]3C(=O)N[C@@H](C)c3ccc(-c4scnc4C)cc3)C(C)(C)C)nc3c(F)c(-c4cc(O)cc5ccccc45)c(Cl)cc23)CC1 (racemic) [compound 195, (2RS,4SR)-1-((RS)-21-((4-(4-acryloylpiperazin-1-yl)-6-chloro-8-fluoro-7-((RS)-3-hydroxynaphthalen-1-yl)quinazolin-2-yl)amino)-2-(tert-butyl)-18-methyl-4,19-dioxo-6,9,12,15-tetraoxa-3,18-diazahenicosanoyl)-4-hydroxy-N-((RS)-1-(4-(4-methylthiazol-5-yl)phenyl)ethyl)pyrrolidine-2-carboxamide]
C (Percent Degradation: C ≤ 35) | C (Percent Degradation: C ≤ 35) | C (Percent Degradation: C ≤ 35) | ≤ 35 |  |  |  |  | CN(CCOCCOc1ccc2c(c1)C(=O)N(C1CCC(=O)NC1=O)C2=O)C(=O)CCNc1nc(N2CCN(C(N)=O)CC2)c2cc(Cl)c(-c3cc(O)cc4ccccc34)c(F)c2n1 (centres unmarked) [compound 27, 4-(6-chloro-2-((3-((2-(2-((2-(2,6-dioxopiperidin-3-yl)-1,3-dioxoisoindolin-5-yl)oxy)ethoxy)ethyl)(methyl)amino)-3-oxopropyl)amino)-8-fluoro-7-(3-hydroxynaphthalen-1-yl)quinazolin-4-yl)piperazine-1-carboxamide]
C (Percent Degradation: C ≤ 35) | C (Percent Degradation: C ≤ 35) | C (Percent Degradation: C ≤ 35) | ≤ 35 |  |  |  |  | CN(CCOCCNc1cccc2c1C(=O)N(C1CCC(=O)NC1=O)C2=O)C(=O)CCNc1nc(N2CCN(C(N)=O)CC2)c2cc(Cl)c(-c3cc(O)cc4ccccc34)c(F)c2n1 (centres unmarked) [compound 32, 4-(6-chloro-2-((3-((2-(2-((2-(2,6-dioxopiperidin-3-yl)-1,3-dioxoisoindolin-4-yl)amino)ethoxy)ethyl)(methyl)amino)-3-oxopropyl)amino)-8-fluoro-7-(3-hydroxynaphthalen-1-yl)quinazolin-4-yl)piperazine-1-carboxamide]
C (Percent Degradation: C ≤ 35) | C (Percent Degradation: C ≤ 35) | C (Percent Degradation: C ≤ 35) | ≤ 35 |  |  |  |  | CN(CCOCCOCCOCCNc1cccc2c1C(=O)N(C1CCC(=O)NC1=O)C2=O)C(=O)CCNc1nc(N2CCN(C(N)=O)CC2)c2cc(Cl)c(-c3cc(O)cc4ccccc34)c(F)c2n1 (centres unmarked) [compound 34, 4-(6-chloro-2-((1-((2-(2,6-dioxopiperidin-3-yl)-1,3-dioxoisoindolin-4-yl)amino)-12-methyl-13-oxo-3,6,9-trioxa-12-azapentadecan-15-yl)amino)-8-fluoro-7-(3-hydroxynaphthalen-1-yl)quinazolin-4-yl)piperazine-1-carboxamide]
C (Percent Degradation: C ≤ 35) | C (Percent Degradation: C ≤ 35) | C (Percent Degradation: C ≤ 35) | ≤ 35 |  |  |  |  | CN(CCOCCOc1ccc2c(c1)CN(C1CCC(=O)NC1=O)C2=O)C(=O)CCNc1nc(N2CCN(C(N)=O)CC2)c2cc(Cl)c(-c3cc(O)cc4ccccc34)c(F)c2n1 (centres unmarked) [compound 37, 4-(6-chloro-2-((3-((2-(2-((2-(2,6-dioxopiperidin-3-yl)-1-oxoisoindolin-5-yl)oxy)ethoxy)ethyl)(methyl)amino)-3-oxopropyl)amino)-8-fluoro-7-(3-hydroxynaphthalen-1-yl)quinazolin-4-yl)piperazine-1-carboxamide]
C (Percent Degradation: C ≤ 35) | C (Percent Degradation: C ≤ 35) | C (Percent Degradation: C ≤ 35) | ≤ 35 |  |  |  |  | CN(CCOCCOCCOCCOc1ccc2c(c1)CN(C1CCC(=O)NC1=O)C2=O)C(=O)CCNc1nc(N2CCN(C(N)=O)CC2)c2cc(Cl)c(-c3cc(O)cc4ccccc34)c(F)c2n1 (centres unmarked) [compound 39, 4-(6-chloro-2-((1-((2-(2,6-dioxopiperidin-3-yl)-1-oxoisoindolin-5-yl)oxy)-12-methyl-13-oxo-3,6,9-trioxa-12-azapentadecan-15-yl)amino)-8-fluoro-7-(3-hydroxynaphthalen-1-yl)quinazolin-4-yl)piperazine-1-carboxamide]
 |  |  |  | C (C ≤ 35) | C (C ≤ 35) | C (C ≤ 35) | ≤ 35 | CCC(=O)N1CCN(c2nc(NCCC(=O)N(C)CCNc3cccc4c3C(=O)N(C3CCC(=O)NC3=O)C4=O)nc3c(F)c(-c4cc(O)cc5ccccc45)c(Cl)cc23)CC1 (centres unmarked) [compound 41, 3-((6-chloro-8-fluoro-7-(3-hydroxynaphthalen-1-yl)-4-(4-propionylpiperazin-1-yl)quinazolin-2-yl)amino)-N-(2-((2-(2,6-dioxopiperidin-3-yl)-1,3-dioxoisoindolin-4-yl)amino)ethyl)-N-methylpropanamide]
 |  |  |  | C (C ≤ 35) | C (C ≤ 35) | C (C ≤ 35) | ≤ 35 | CCC(=O)N1CCN(c2nc(NCCC(=O)N(C)CCOCCNc3cccc4c3C(=O)N(C3CCC(=O)NC3=O)C4=O)nc3c(F)c(-c4cc(O)cc5ccccc45)c(Cl)cc23)CC1 (centres unmarked) [compound 42, 3-((6-chloro-8-fluoro-7-(3-hydroxynaphthalen-1-yl)-4-(4-propionylpiperazin-1-yl)quinazolin-2-yl)amino)-N-(2-(2-((2-(2,6-dioxopiperidin-3-yl)-1,3-dioxoisoindolin-4-yl)amino)ethoxy)ethyl)-N-methylpropanamide]
 |  |  |  | C (C ≤ 35) | C (C ≤ 35) | C (C ≤ 35) | ≤ 35 | CCC(=O)N1CCN(c2nc(NCCC(=O)N(C)CCOCCOCCNc3cccc4c3C(=O)N(C3CCC(=O)NC3=O)C4=O)nc3c(F)c(-c4cc(O)cc5ccccc45)c(Cl)cc23)CC1 (centres unmarked) [compound 43, 3-((6-chloro-8-fluoro-7-(3-hydroxynaphthalen-1-yl)-4-(4-propionylpiperazin-1-yl)quinazolin-2-yl)amino)-N-(2-(2-(2-((2-(2,6-dioxopiperidin-3-yl)-1,3-dioxoisoindolin-4-yl)amino)ethoxy)ethoxy)ethyl)-N-methylpropanamide]
 |  |  |  | C (C ≤ 35) | C (C ≤ 35) | C (C ≤ 35) | ≤ 35 | CCC(=O)N1CCN(c2nc(NCCC(=O)N(C)CCOCCOCCOCCNc3cccc4c3C(=O)N(C3CCC(=O)NC3=O)C4=O)nc3c(F)c(-c4cc(O)cc5ccccc45)c(Cl)cc23)CC1 (centres unmarked) [compound 44]
 |  |  |  | C (C ≤ 35) | C (C ≤ 35) | C (C ≤ 35) | ≤ 35 | CCC(=O)N1CCN(c2nc(NCCC(=O)N(C)CCOCCOCCOCCOCCNc3cccc4c3C(=O)N(C3CCC(=O)NC3=O)C4=O)nc3c(F)c(-c4cc(O)cc5ccccc45)c(Cl)cc23)CC1 (centres unmarked) [compound 45, 3-((6-chloro-8-fluoro-7-(3-hydroxynaphthalen-1-yl)-4-(4-propionylpiperazin-1-yl)quinazolin-2-yl)amino)-N-(14-((2-(2,6-dioxopiperidin-3-yl)-1,3-dioxoisoindolin-4-yl)amino)-3,6,9,12-tetraoxatetradecyl)-N-methylpropanamide]
 |  |  |  | C (C ≤ 35) | C (C ≤ 35) | C (C ≤ 35) | ≤ 35 | CCC(=O)N1CCN(c2nc(NCCC(=O)N(C)CCOc3ccc4c(c3)C(=O)N(C3CCC(=O)NC3=O)C4=O)nc3c(F)c(-c4cc(O)cc5ccccc45)c(Cl)cc23)CC1 (centres unmarked) [compound 46, 3-((6-chloro-8-fluoro-7-(3-hydroxynaphthalen-1-yl)-4-(4-propionylpiperazin-1-yl)quinazolin-2-yl)amino)-N-(2-((2-(2,6-dioxopiperidin-3-yl)-1,3-dioxoisoindolin-5-yl)oxy)ethyl)-N-methylpropanamide]
 |  |  |  | C (C ≤ 35) | C (C ≤ 35) | C (C ≤ 35) | ≤ 35 | CCC(=O)N1CCN(c2nc(NCCC(=O)N(C)CCOCCOc3ccc4c(c3)C(=O)N(C3CCC(=O)NC3=O)C4=O)nc3c(F)c(-c4cc(O)cc5ccccc45)c(Cl)cc23)CC1 (centres unmarked) [compound 47, 3-((6-chloro-8-fluoro-7-(3-hydroxynaphthalen-1-yl)-4-(4-propionylpiperazin-1-yl)quinazolin-2-yl)amino)-N-(2-(2-((2-(2,6-dioxopiperidin-3-yl)-1,3-dioxoisoindolin-5-yl)oxy)ethoxy)ethyl)-N-methylpropanamide]
 |  |  |  | C (C ≤ 35) | C (C ≤ 35) | C (C ≤ 35) | ≤ 35 | CCC(=O)N1CCN(c2nc(NCCC(=O)N(C)CCOCCOCCOc3ccc4c(c3)C(=O)N(C3CCC(=O)NC3=O)C4=O)nc3c(F)c(-c4cc(O)cc5ccccc45)c(Cl)cc23)CC1 (centres unmarked) [compound 48, 3-((6-chloro-8-fluoro-7-(3-hydroxynaphthalen-1-yl)-4-(4-propionylpiperazin-1-yl)quinazolin-2-yl)amino)-N-(2-(2-(2-((2-(2,6-dioxopiperidin-3-yl)-1,3-dioxoisoindolin-5-yl)oxy)ethoxy)ethoxy)ethyl)-N-methylpropanamide]
